In ChEMBL document CHEMBL1130408, “Repromicin derivatives with potent antibacterial activity against Pasteurella multocida” (1997) one finds ED50 and MIC data, which are given here for 14 compounds.

Usually MIC stands for the lowest concentration found to suppress growth.

Common to all, as to assay type: functional
The species entered for experiment [1] is Mus musculus. The experiment in a line: Protected dose at which the test compound protects 50% of challenged mice from death owing to the Pasteurella multocida infection. The conditions noted are these: read-out: PD50.
Another experiment relates to Pasteurella multocida. The experiment in a line: Minimum inhibitory concentration required to inhibit Pasteurella multocida 59A006 in vitro.
Experiment [2] is filed under the species Mus musculus. The experiment in a line: Protected dose which protects 50% of challenged mice from death owing to the Pasteurella multocida (59A006) infection. Conditions: read-out: PD50.

Converted amounts (≈) assume the structure as drawn.

Consider `CC[C@H]1OC(=O)C[C@@H](O)[C@H](C)[C@@H](O[C@@H]2O[C@H](C)[C@@H](O)[C@H](N(C)C)[C@H]2O)[C@@H](CCN2C[C@H](C)C[C@H](C)C2)C[C@@H](C)C(=O)/C=C/C(C)=C/[C@@H]1CO[C@@H]1O[C@H](C)[C@@H](O)[C@@H](OC)[C@H]1OC` [TILMICOSIN], for which the ED50 in the experiment listed under Mus musculus [1] worked out at 99 mg/kg. Besides, the MIC with Pasteurella multocida turned out to be 1.56 µg/mL (≈ 1.79 µM).

Consider `CC[C@H]1OC(=O)[C@H](C)[C@@H](O[C@H]2C[C@@](C)(OC)[C@@H](O)[C@H](C)O2)[C@H](C)[C@@H](O[C@@H]2O[C@H](C)C[C@H](N(C)C)[C@H]2O)[C@](C)(O)C[C@@H](C)CN(C)[C@H](C)[C@@H](O)[C@]1(C)O` [AZITHROMYCIN], for which the ED50 in the experiment filed under Mus musculus [1] was 16 mg/kg. In the experiment on Pasteurella multocida, this compound gave an MIC of 0.05 µg/mL (≈ 0.0668 µM).

Turning to `CC[C@H]1OC(=O)CC(O)[C@H](C)[C@@H](O[C@@H]2O[C@H](C)C[C@H](N(C)C)[C@H]2O)[C@@H](CCN2CC(O)C2)C[C@@H](C)C(=O)/C=C/C(C)=C/[C@@H]1C` (stereo partly drawn), the ED50 in the experiment filed under Mus musculus [2] is 19 mg/kg. In the experiment with Pasteurella multocida, the MIC was determined as 0.2 µg/mL (≈ 0.321 µM).

In the case of `CC[C@H]1OC(=O)CC(O)[C@H](C)[C@@H](O[C@@H]2O[C@H](C)C[C@H](N(C)C)[C@H]2O)[C@@H](CCN2CCCCCC2)C[C@@H](C)C(=O)/C=C/[C@]2(C)O[C@H]2[C@@H]1C` (stereo partly drawn), the ED50 in the experiment listed under Mus musculus [2] came to 150 mg/kg. The MIC in the experiment with Pasteurella multocida amounted to 0.2 µg/mL (≈ 0.301 µM).

Turning to `CC[C@H]1OC(=O)CC(O)[C@H](C)[C@@H](O[C@@H]2O[C@H](C)C[C@H](N(C)C)[C@H]2O)[C@@H](CCN(C)C)C[C@@H](C)C(=O)/C=C/C(C)=C/[C@@H]1C` (stereo partly drawn), in the experiment listed under Mus musculus [2], the ED50 amounted to 150 mg/kg. In the experiment on Pasteurella multocida, this compound showed an MIC of 0.39 µg/mL (≈ 0.656 µM).

Turning to `CC[C@H]1OC(=O)CC(O)[C@H](C)[C@@H](O[C@@H]2O[C@H](C)C[C@H](N(C)C)[C@H]2O)[C@@H](CCN(C)CCN(C)C(=O)CN)C[C@@H](C)C(=O)/C=C/C(C)=C/[C@@H]1C` (stereo partly drawn), the ED50 in the experiment filed under Mus musculus [2] stood at 4 mg/kg. Also, in the experiment on Pasteurella multocida, the MIC was 0.2 µg/mL (≈ 0.288 µM).

For `CO[C@@H]1[C@@H](O[C@@H]2O[C@H](C)[C@@H](O[C@H]3C[C@@](C)(O)[C@@H](OC(=O)CC(C)C)[C@H](C)O3)[C@H](N(C)C)[C@H]2O)[C@@H](CC=O)C[C@@H](C)C(=O)/C=C/[C@@H]2O[C@H]2C[C@@H](C)OC(=O)C[C@H]1OC(C)=O` [CARBOMYCIN A], the ED50 in the experiment listed under Mus musculus [2] was greater than 150 mg/kg. Also, the minimal inhibitory concentration (MIC) in the experiment on Pasteurella multocida amounted to 1.56 µg/mL (≈ 1.85 µM).

Turning to `CC[C@H]1OC(=O)C[C@@H](O)[C@H](C)[C@@H](O[C@@H]2O[C@H](C)[C@@H](O)[C@@H](N(C)C)[C@H]2O)[C@@H](CC=O)C[C@@H](C)C(=O)/C=C/C(C)=C/[C@@H]1CO[C@@H]1O[C@H](C)[C@@H](O)[C@@H](OC)[C@H]1OC`, the ED50 in the experiment filed under Mus musculus [1] amounted to 66 mg/kg. The lowest concentration to inhibit growth in the experiment on Pasteurella multocida (MIC) was 3.13 µg/mL (≈ 4.05 µM).

Regarding `CC[C@H]1OC(=O)CC(O)[C@H](C)[C@@H](O[C@@H]2O[C@H](C)C[C@H](N(C)C)[C@H]2O)[C@@H](CCNCC(O)CO)C[C@@H](C)C(=O)/C=C/C(C)=C/[C@@H]1C` (stereo partly drawn), in the experiment filed under Mus musculus [2], the ED50 is 10 mg/kg. In the experiment on Pasteurella multocida, this compound came in with an MIC of 0.39 µg/mL (≈ 0.609 µM).

With `CC[C@H]1OC(=O)CC(O)[C@H](C)[C@@H](O[C@@H]2O[C@H](C)C[C@H](N(C)C)[C@H]2O)[C@@H](CCN(CCCN(C)C)C(C)=O)C[C@@H](C)C(=O)/C=C/C(C)=C/[C@@H]1C` (stereo partly drawn), the ED50 in the experiment filed under Mus musculus [2] is greater than 25 mg/kg. The same compound gave an MIC in the experiment with Pasteurella multocida of 0.39 µg/mL (≈ 0.562 µM).

With `CC[C@H]1OC(=O)CC(O)[C@H](C)[C@@H](O[C@@H]2O[C@H](C)C[C@H](N(C)C)[C@H]2O)[C@@H](CCN(CCO)CCO)C[C@@H](C)C(=O)/C=C/C(C)=C/[C@@H]1C` (stereo partly drawn), the ED50 in the experiment listed under Mus musculus [2] came to 41 mg/kg. Moreover, in the experiment on Pasteurella multocida, 0.2 µg/mL (≈ 0.305 µM) was the least that counted as inhibitory (MIC).

In the case of `CC[C@H]1OC(=O)C[C@@H](O)[C@H](C)[C@@H](O[C@@H]2O[C@H](C)[C@@H](O[C@H]3C[C@@](C)(O)[C@@H](O)[C@H](C)O3)[C@H](N(C)C)[C@H]2O)[C@@H](CC=O)C[C@@H](C)C(=O)/C=C/C(C)=C/[C@@H]1CO[C@@H]1O[C@H](C)[C@@H](O)[C@@H](OC)[C@H]1OC` [TYLOSIN], in the experiment filed under Mus musculus [2], the ED50 amounted to 86 mg/kg. This compound returned an MIC against Pasteurella multocida of 25 µg/mL (≈ 27.3 µM).

On to `CC[C@H]1OC(=O)CC(O)[C@H](C)[C@@H](O[C@@H]2O[C@H](C)C[C@H](N(C)C)[C@H]2O)[C@@H](CCN(CCCN(C)C)C(=O)CN)C[C@@H](C)C(=O)/C=C/C(C)=C/[C@@H]1C` (stereo partly drawn), for which the ED50 in the experiment listed under Mus musculus [2] was determined as 4 mg/kg. The compound further had an MIC against Pasteurella multocida of 0.78 µg/mL (≈ 1.1 µM).

With `CC[C@H]1OC(=O)CC(O)[C@H](C)[C@@H](O[C@@H]2O[C@H](C)C[C@H](N(C)C)[C@H]2O)[C@@H](CCN2CCCC2)C[C@@H](C)C(=O)/C=C/C(C)=C/[C@@H]1C` (stereo partly drawn), the ED50 in the experiment filed under Mus musculus [2] worked out at 128 mg/kg. In the experiment on Pasteurella multocida, 0.39 µg/mL (≈ 0.628 µM) was the least that counted as inhibitory (MIC).
